Reference: patent US8354419B2, “Benzimidazole analogues for the treatment or prevention of flavivirus infections” (Vertex Pharmaceuticals Incorporated, priority 2009, dated 2013)

What follows are compounds tested on HCV (Ib) RNA replication (assay: Cell-based luciferase reporter HCV (1b) RNA replication assay (replicon cell lines Huh-7 5.2 and ET)). Conditions: Hepatitis C virus, Huh-7, 96 h, HCV 1b genotype replicon, luciferase readout, 4 days incubation; read-out: EC50_1b.
Design: species or system Hepatitis C virus
How it was run: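 Huh-7-derived 5.2 or ET replicon cells carrying a firefly luciferase reporter were seeded at ~3000 cells/well in medium without G418 or phenol red. Compound was added after 3-4 h, followed by 4 days at 37 °C. Luciferase readout was used, with IC50 fitted by nonlinear regression from eleven concentrations in duplicate.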
`COC(=O)N[C@H](C(=O)N1CCC[C@H]1c1nc2cc(C#Cc3ccc4[nH]c([C@@H]5CCCN5C(=O)[C@H](NC(=O)OC)c5ccccc5)nc4c3)ccc2[nH]1)C(C)C` [Compound 39, {(S)-1-[(S)-2-(5-{2-[(S)-1-((R)-2-Methoxycarbonylamino-2-phenyl-acetyl)-pyrrolidin-2-yl]-1H-benzoimidazol-5-ylethynyl}-1H-benzoimidazol-2-yl)-pyrrolidine-1-carbonyl]-2-methyl-propyl}-carbamic acid methyl ester] showed an EC50 of at most 5 nM.
In the case of `COC(=O)N[C@H](C(=O)N1C[C@@H](C)C[C@H]1c1nc2cc(-c3cc4sc(-c5ccc6[nH]c([C@@H]7C[C@H](C)CN7C(=O)[C@@H](NC(=O)OC)C(C)C)nc6c5)cc4s3)ccc2[nH]1)C(C)C` [Compound 233], the EC50 is reported as at most 5 nM.
In the case of `COC(=O)N[C@H](C(=O)N1C[C@@H](C(F)(F)F)C[C@H]1c1nc2cc(-c3ccc(-c4ccc5[nH]c([C@@H]6C[C@H](C(F)(F)F)CN6C(=O)[C@@H](NC(=O)OC)C(C)C)nc5c4)cc3)ccc2[nH]1)C(C)C` [Compound 316], the EC50 is reported as at most 5 nM.
`COC(=O)N[C@H](C(=O)N1CCC[C@H]1c1nc2cc(-c3ccc(-c4ccc5nc([C@@H]6CCCN6C(=O)[C@@H](NC(=O)OC)C(C)C)[nH]c5c4)c4c3OCCO4)ccc2[nH]1)C(C)C` [Compound 172] showed an EC50 of at most 5 nM.
In the case of `COC(=O)N[C@H](C(=O)N1C[C@@H](C)C[C@H]1c1nc2cc(-c3cc4cc(-c5ccc6[nH]c([C@@H]7C[C@H](C)CN7C(=O)[C@@H](NC(=O)OC)C(C)C)nc6c5)sc4s3)ccc2[nH]1)C(C)C` [Compound 332], the EC50 is reported as at most 5 nM.
`CC(C)C(NC(=O)C1CCCCC1)C(=O)N1CCC[C@H]1c1nc2cc(C#Cc3ccc4[nH]c([C@@H]5CCCN5C(=O)C(NC(=O)C5CCCCC5)C(C)C)nc4c3)ccc2[nH]1` (stereo partly drawn) [Compound 85] showed an EC50 of 5 to 5000 nM.
`COC(=O)N[C@H](C(=O)N1C[C@@H](C)C[C@H]1c1nc2cc(-c3cc4sc(-c5ccc6nc([C@@H]7C[C@H](C)CN7C(=O)[C@@H](NC(=O)OC)C(C)C)n(C)c6c5)cc4s3)ccc2[nH]1)C(C)C` [Compound 323] was tested, and the EC50 was at most 5 nM.
In the case of `COC(=O)N[C@H](C(=O)N1C[C@@H](C)C[C@H]1c1nc2ccc(-c3ccc(-c4ccc5nc([C@@H]6C[C@H](C)CN6C(=O)[C@@H](NC(=O)OC)C(C)C)n(C)c5c4)cc3)cc2[nH]1)C(C)C` [Compound 294], the EC50 is reported as at most 5 nM.
`COC(=O)N[C@H](C(=O)N1CCC[C@H]1c1nc2cc(-c3ccc(-c4ccc5nc([C@@H]6CCCN6C(=O)[C@@H](NC(=O)OC)C(C)C)[nH]c5c4)cc3)ccc2[nH]1)C(C)C` [Compound 1, ((S)-1-{(S)-2-[5-(4-{2-[(S)-1-((S)-2-Methoxycarbonylamino-3-methyl-butyryl)-pyrrolidin-2-yl]-1H-benzoimidazol-5-yl}-phenyl)-1H-benzoimidazol-2-yl]-pyrrolidine-1-carbonyl}-2-methyl-propyl)-carbamic acid methyl ester] showed an EC50 of at most 5 nM.
`CC[C@H](NC(C)=O)C(=O)N1CCC[C@H]1c1nc2cc(C#Cc3ccc4[nH]c([C@@H]5CCCN5C(=O)[C@H](CC)NC(C)=O)nc4c3)ccc2[nH]1` [Compound 111] was tested, and the EC50 was 5 to 5000 nM.
`COC(=O)N[C@H](C(=O)N1CCC[C@H]1c1nc2cc(-c3c(F)cc(-c4ccc5nc([C@@H]6CCCN6C(=O)[C@@H](NC(=O)OC)C(C)C)[nH]c5c4)cc3F)ccc2[nH]1)C(C)C` [Compound 143] was tested, and the EC50 was at most 5 nM.
`CCOC(=O)N[C@H](C(=O)N1CCC[C@H]1c1nc2cc(-c3ccc(-c4ccc5[nH]c([C@@H]6CCCN6C(=O)[C@@H](NC(=O)OCC)C(C)C)nc5c4)cc3)ccc2[nH]1)C(C)C` [Compound 178] showed an EC50 of at most 5 nM.
Work on `COC(=O)N[C@H](C(=O)N1CCOC[C@H]1c1nc2cc(-c3ccc(-c4ccc5nc([C@@H]6COCCN6C(=O)[C@@H](NC(=O)OC)C(C)C)[nH]c5c4)cc3)ccc2[nH]1)C(C)C` [Compound 168] yielded an EC50 of at most 5 nM.
`COC(=O)N[C@@H](C)C(=O)N1CCC[C@H]1c1nc2cc(C#Cc3ccc4[nH]c([C@@H]5CCCN5C(=O)[C@@H](NC(=O)OC)C(C)C)nc4c3)ccc2[nH]1` [Compound 53] showed an EC50 of at most 5 nM.
Compound `COC(=O)N[C@H](C(=O)N1CCC[C@H]1c1nc2cc(-c3cscc3-c3ccc4[nH]c([C@@H]5CCCN5C(=O)[C@@H](NC(=O)OC)C(C)C)nc4c3)ccc2[nH]1)C(C)C` [Compound 44, Dimethyl-(2S,2′S)-1,1′-((2S,2′S)-2,2′-(5,5′-(thiophene-3,4-diyl)bis(1H-benzo[d]imidazole-5,2-diyl))bis(pyrrolidine-2,1-diyl))bis(3-methyl-1-oxobutane-2,1-diyl)dicarbamate] has an EC50 of at most 5 nM.
`O=C(OCc1ccccc1)N1CCCC[C@H]1c1nc2cc(C#Cc3ccc4nc([C@@H]5CCCN5C(=O)OCc5ccccc5)[nH]c4c3)ccc2[nH]1` [Compound 49] showed an EC50 of 5 to 5000 nM.
`CC(C)(C)OC(=O)N[C@H](CC1CCC1)C(=O)N1CCC[C@H]1c1nc2cc(C#Cc3ccc4[nH]c([C@@H]5CCCN5C(=O)[C@@H](CC5CCC5)NC(=O)OC(C)(C)C)nc4c3)ccc2[nH]1` [Compound 113] was tested, and the EC50 was at most 5 nM.
In the case of `Cn1c([C@@H]2CCCN2)nc2cc(-c3ccc(-c4ccc5c(c4)nc([C@@H]4CCCN4)n5C)cc3)ccc21` [Compound 227], the EC50 is reported as over 5000 nM.
`COC(=O)N[C@H](C(=O)N1CCC[C@H]1c1nc2cc(C#Cc3ccc4nc([C@@H]5CCCN5C(=O)NC5CCCCC5)[nH]c4c3)ccc2[nH]1)C(C)C` [Compound 123] showed an EC50 of 5 to 5000 nM.
For `COC(=O)N[C@H](C(=O)N1CC(F)(F)C[C@H]1c1nc2cc(C#Cc3ccc4nc([C@@H]5CC(F)(F)CN5C(=O)[C@@H](NC(=O)OC)C(C)C)[nH]c4c3)ccc2[nH]1)C(C)C` [Compound 90], the EC50 was at most 5 nM.
`COC(=O)N[C@H](C(=O)N1C[C@@H](C)C[C@H]1c1nc2cc(-c3ccc(-c4ccc5[nH]c([C@@H]6C[C@H](C)CN6C(=O)[C@@H](NC(=O)OC)C(C)C)nc5c4)cc3)ccc2[nH]1)C(C)C` [Compound 186] was tested, and the EC50 was at most 5 nM.
With `CC(C)(C)OC(=O)N1CCCC[C@H]1c1nc2cc(C#Cc3ccc4nc([C@@H]5CSCN5C(=O)OC(C)(C)C)[nH]c4c3)ccc2[nH]1` [Compound 48] the EC50 was over 5000 nM.
`COC(=O)N[C@H](C(=O)N1CCC[C@H]1c1nc2cc(-c3csc(-c4ccc5[nH]c([C@@H]6CCCN6C(=O)[C@@H](NC(=O)OC)C(C)C)nc5c4)n3)ccc2[nH]1)C(C)C` [Compound 159] showed an EC50 of at most 5 nM.
`CCC(C)CN1CCC[C@H]1c1nc2cc(C#Cc3ccc4[nH]c([C@@H]5CCCN5CC(C)CC)nc4c3)ccc2[nH]1` (stereo partly drawn) [Compound 137] was tested, and the EC50 was 5 to 5000 nM.
`COC(=O)N[C@H](C(=O)N1CCC[C@H]1c1nc2cc(-c3ccc(-c4ccc5nc([C@@H]6CCCN6C(=O)[C@@H](NC(=O)OC)C(C)C)[nH]c5c4)cn3)ccc2[nH]1)C(C)C` [Compound 6, ((S)-1-{(S)-2-[5-(5-{2-[(S)-1-((S)-2-Methoxycarbonylamino-3-methyl-butyryl)-pyrrolidin-2-yl]-1H-benzoimidazol-5-yl}-pyridin-2-yl)-1H-benzoimidazol-2-yl]-pyrrolidine-1-carbonyl}-2-methyl-propyl)-carbamic acid methyl ester] was tested, and the EC50 was at most 5 nM.
For `COC(=O)N[C@H](C(=O)N1CCC[C@H]1c1nc2ccc(-c3cnc(-c4ccc5nc([C@@H]6CCCN6C(=O)[C@@H](NC(=O)OC)C(C)C)[nH]c5c4)n3C)cc2[nH]1)C(C)C` [Compound 200], the EC50 was 5 to 5000 nM.
For `Cc1nc(C)c(C(=O)N2CCC[C@H]2c2nc3cc(C#Cc4ccc5nc([C@@H]6CCCN6C(=O)c6sc(C)nc6C)[nH]c5c4)ccc3[nH]2)s1` [Compound 152], the EC50 was 5 to 5000 nM.
Compound `COC(=O)N[C@H](C(=O)N1CCC[C@H]1c1nc2cc(-c3ccsc3-c3ccc4[nH]c([C@@H]5CCCN5C(=O)[C@@H](NC(=O)OC)C(C)C)nc4c3)ccc2[nH]1)C(C)C` [Compound 133] has an EC50 of at most 5 nM.
Work on `COC(=O)N[C@H](C(=O)N1CCC[C@H]1c1nc2cc(-c3cc(C)c(-c4ccc5nc([C@@H]6CCCN6C(=O)[C@@H](NC(=O)OC)C(C)C)[nH]c5c4)cc3C)ccc2[nH]1)C(C)C` [Compound 14, ((S)-1-{(S)-2-[5-(4-{2-[(S)-1-((S)-2-Methoxycarbonylamino-3-methyl-butyryl)-pyrrolidin-2-yl]-1H-benzoimidazol-5-yl}-2,5-dimethyl-phenyl)-1H-benzoimidazol-2-yl]-pyrrolidine-1-carbonyl}-2-methyl-propyl)-carbamicacid methyl ester] yielded an EC50 of at most 5 nM.
For `CC(C)(C)OC(=O)N1CCC[C@H]1c1nc2cc(-c3ccc(-c4ccc5[nH]c([C@@H]6CCCN6C(=O)OC(C)(C)C)nc5c4)s3)ccc2[nH]1` [Compound 16, (2S,2′S)-tert-butyl-2,2′-(5,5′-(thiophene-2,5-diyl)bis(1H-benzo[d]imidazole-5,2-diyl))dipyrrolidine-1-carboxylate], the EC50 was 5 to 5000 nM.
`COC(=O)N[C@H](C(=O)N1[C@H](C)CC[C@H]1c1nc2cc(-c3ccc(-c4ccc5[nH]c([C@@H]6CC[C@H](C)N6C(=O)[C@@H](NC(=O)OC)C(C)C)nc5c4)cc3)ccc2[nH]1)C(C)C` [Compound 313] was tested, and the EC50 was at most 5 nM.
Work on `COC(=O)N[C@H](C(=O)N1CCC[C@H]1c1nc2cc(C#Cc3ccc4nc([C@@H]5CCCN5C(=O)[C@@H](NC(=O)OC(C)(C)C)C5CCCCC5)[nH]c4c3)ccc2[nH]1)C(C)C` [Compound 77] yielded an EC50 of at most 5 nM.
Work on `CC(C)[C@H](NS(C)(=O)=O)C(=O)N1CCC[C@H]1c1nc2cc(C#Cc3ccc4nc([C@@H]5CCCN5C(=O)[C@@H](NS(C)(=O)=O)C(C)C)[nH]c4c3)ccc2[nH]1` [Compound 65] yielded an EC50 of 5 to 5000 nM.
In the case of `COC(=O)N[C@H](C(=O)N1[C@H](c2nc3cc(-c4ccc(-c5ccc6[nH]c([C@@H]7C[C@@H]8C[C@@H]8N7C(=O)[C@@H](NC(=O)OC)C(C)C)nc6c5)cc4)ccc3[nH]2)C[C@@H]2C[C@@H]21)C(C)C` [Compound 234], the EC50 is reported as at most 5 nM.
For `Cc1cc(-c2ccc3[nH]c([C@@H]4CCCN4C(=O)[C@@H](NC(=O)O[C@H]4CCOC4)C(C)C)nc3c2)sc1-c1ccc2[nH]c([C@@H]3CCCN3C(=O)[C@@H](NC(=O)O[C@H]3CCOC3)C(C)C)nc2c1` [Compound 156], the EC50 was 5 to 5000 nM.
`COC(=O)N[C@H](C(=O)N1C[C@@H](C)C[C@H]1c1nc2ccc(-c3ccc(-c4ccc5nc([C@@H]6C[C@H](C)CN6C(=O)[C@@H](NC(=O)OC)C(C)C)n(C)c5c4)cc3)cc2n1C)C(C)C` [Compound 293] gave an EC50 of at most 5 nM.
